Test results taken from patent publication US6887669B1, “Reagents for assays for ligands” (Dade Behring Marburg GmbH, priority 1996, dated 2005).

Legend:
[1] = Background absorbance at 340 nm of Reagent A containing releasing agent; assay type: physicochemical; conditions: for C A 340 nm (background absorbance): 3 μL negative NHP + 72 μL water + 155 μL Reagent A, 0.6 cm path; for C A 340 nm (background absorbance) / D ΔA = agent - control ΔA 340 nm: ANS 0.25 mM, anisic acids 12.5 mM in Rgt A
Method: In both runs, the background absorbance at 340 nm for each Reagent A was measured in duplicate on a 230-μL combination of 3 μL negative NHP, 72 μL of deionized water, and 155 μL Reagent A. The cell path length was 0.6 cm. […] These changes are noted as follows. Reagent B and water were added in cycle 4. The analysis was finished at the end of cycle 15. Rates were determined using the 5 absorbance readings of cycles 11 through 15.

[2] = system: MPA bound to plasma proteins in normal human plasma (NHP); assay: MPA enzyme immunoassay rates with releasing agents in Reagent A (NHP versus buffer), Example 2; conditions: for I (H-G) Buff Rate Span: 0 to 10 μg/mL MPA in buffer; for J (H-F) Buff-NHP Rate Diff.: 10 μg/mL MPA, closer to zero = better releasing effect; for G Buff with 0 μg/mL MPA Rate / H Buff with 10 μg/mL MPA Rate: 50 mM MES buffer pH 7.1; for G Buff with 0 μg/mL MPA Rate / H Buff with 10 μg/mL MPA Rate / E NHP with 0 μg/mL MPA Rate / F NHP with 10 μg/mL MPA Rate: ANS 0.25 mM, anisic acids 12.5 mM in Rgt A
Method: Rates were determined on a Cobas Mira Plus® instrument (Roche Diagnostics Systems, Inc., Branchburg, N.J.). The temperature was kept at 37° C. for the entire assay. Timings were carried out in cycles with each cycle being 25 seconds. In cycle 1, the first cycle, 75 μL of water and 3 μL of a sample were mixed with 155 μL of A diluent in a 0.6 cm path length cuvette. This mixture was incubated until the addition of Reagent B in cycle 7. […] In cycle 7, seventy-five μL of Reagent B followed by 20 μL of water was then added to the cuvette, mixed, and incubated until the end of cycle 25 at which time the assay was finished. During the assay, absorbance readings at 340 nm were made at the end of every cycle. A best linear fit was then made using only the 12 consecutive absorbance readings of cycles 14 through 25 versus time in minutes. The slope of this line was the rate.
In these experiments, the diluent for Reagent A (Rgt A) was made somewhat differently than that in Example 1. However, the composition was the same, except for component 7 (releasing agent, o-anisic acid) and component 10 (concentration of MPA antibody). Five diluents were prepared, four with one of each of the above agents and one control with no agent. First, a 2×solution was made in the manner described in Example 1 but which had only components 1 through 5 and 9 at twice the amounts listed. Next, for three of the diluents, each of the three anisic acid isomers was weighed to achieve a final molarity of 12.5 mM and predissolved in one quarter the final volume of water and a minimum amount of 6 N NaOH (approximately 6 drops per 0.2 grams anisic acid). For the fourth diluent, the agent, ANS, was weighed to give a 0.25 mM final concentration and added to one quarter the final volume of water. The fifth diluent, the control, had no releasing agent. To make each of these five diluents, the appropriate amounts of the 2×solution, the 1×amount of BSA, component 8, and the 1×amount of the Pluronic 25R solution, component 6, were combined. Four of these then received the appropriate agent. All were mixed well. Where necessary, pH adjustments were made as described previously and each preparation was brought to the final volume with deionized water to achieve 1× concentrations of components. Each of these A diluents was then filtered through a 0.2 micron filter. Final pH measurements on each were all between 5.5 to 5.7. For each of these five A diluents, a corresponding Reagent A was made by adding antibody to MPA for a final concentration of 6.5 μg/mL. Reagent B (Rgt B) was prepared as described in Example 1 except that component 20 was omitted and 0.1% BSA (Miles Diagnostics, Kankakee, Ill.) was substituted for BLG.
In a total of two runs the effects of each of the four agents relative to a control of no agent was examined with respect to (1) background absorbance at 340 nm, (2) the rate of a negative MPA sample, (3) the rate span between 0 and 10 μg/mL MPA, and (4) the closeness of rate matching of a 10 μg/mL MPA spike in NHP and in buffer. Both runs included the control Reagent A. The first run evaluated Reagent A with ANS while the second run evaluated Reagent A preparations containing the structural isomers of anisic acid.
MPA was spiked into NHP and buffer (Buff) to achieve a final concentration of 10 μg/mL MPA. Buffer in this example was 50 mM MES (2-[N-morpholino]ethanesulfonic acid, obtained from Sigma Chemical Company) with 0.1% (weight/volume) sodium azide, pH 7.1. As with PBS, this buffer has no protein and thus no protein binding of MPA can occur.
In both runs, the background absorbance at 340 nm for each Reagent A was measured in duplicate on a 230-μL combination of 3 μL negative NHP, 72 μL of deionized water, and 155 μL Reagent A. The cell path length was 0.6 cm. The average A340 (A=absorbance) values are found in Column C of Table 1. Duplicate rates were determined on the spiked and unspiked NHP and buffer similar to Example 1. […]

[3] = Discoloration of Reagent A on exposure to light; assay type: physicochemical; conditions: agent formulated in Reagent A
[4] = cited from earlier work
[5] = system: MPA bound to plasma proteins in normal human plasma pool (NHP); assay: EMIT-type enzyme immunoassay for MPA with o-anisic acid in Reagent A: quantitation of MPA spike in NHP versus protein-free PBS; conditions: average of two spikes, formulation with o-anisic acid, pooled sd 0.4 μg/mL
Method: Reagent A was prepared by first making an anisic acid solution. Anisic acid was dissolved in 1 N NaOH in an amount equal to 25 mL per 1.52 grams of anisic acid. In a separate container was weighed 70% of the final weight of deionized water, to which was added components 1 through 5 inclusive and also component 6 using the prepared solution of Pluronic®25R2 at 10 mL thereof per 1017.9 g (or 1.0 liter) of final solution. This solution was stirred and the anisic acid solution was added. If necessary, the pH of the preparation was adjusted within the range of 5.50 to 5.70 with 6 N NaOH. Next, components 8 and 9 were added and the solution was stirred. If necessary, the pH was adjusted to the above range. […]
For Reagent B deionized water was weighed in an amount equal to 80% of the final weight. […] The conjugate, component 19, was added to achieve a rate of 300±10 mA/min; rate is defined as the change in absorbance at 340 nm per minute of reaction time and is usually expressed as mA/min.
Rates were determined on a Cobas Mira Plus® instrument (Roche Diagnostics Systems, Inc., Branchburg, N.J.). […] During the assay, absorbance readings at 340 nm were made at the end of every cycle. A best linear fit was then made using only the 12 consecutive absorbance readings of cycles 14 through 25 versus time in minutes. […]

[6] = system: MPA bound to plasma proteins in normal human plasma; assay: MPA rates in plasma spikes in the presence of co-administered drugs and salicylate, with or without o-anisic acid, Example 4
Method: In a separate study, the ability of o-anisic acid to eliminate the effect of salicylate on rates of MPA plasma spikes was compared. Two sets of antibody reagents (Reagent A) were prepared to the basic formulation described in Example 2 above. In one reagent, no releasing agent was added; in another reagent, o-anisic acid was added at 12.5 mM. A common Reagent B was prepared as described in Example 2. Rates for four levels of MPA spikes into plasma and a plasma control were measured with each reagent set. […] Salicylate was present at 659 μg/mL. Rates were determined as described in Example 2 above with the exception of the absorbance read window, which was extended to cycle 20 where the assay was ended. Rates were determined using the 10 consecutive absorbance readings of cycles 11 through 20.

[7] = system: MPA enzyme immunoassay; assay: Effect of salicylate as releasing agent on total dose-response curve of MPA enzyme immunoassay; conditions: salicylate used as releasing agent
Description: Salicylate is known to increase MPA free fraction in normal human plasma when present at concentrations that may be observed in chronic administration of aspirin (Nowak, infra). […] It is also known that 8-anilino-1-naphthalenesulfonic acid (ANS) functions as a releasing agent in immunoassays (Nerli, et al., Arch Int Physiol Biochim Biophys (1994) 102(1):5-8 and Seth, et al., Clin Chem (1975) 21(10):1406-1413. However, ANS has disadvantages because of its background absorbance at 340 nm and its susceptibility to light degradation. The background absorbance is particularly disadvantageous in enzyme immunoassays. However, ANS has been used in certain enzyme assays under conditions where its disadvantages can be tolerated.

[8] = plasma + methanol control, o-anisic acid 12.5 mM in Reagent A
[9] = plasma with NI drugs + salicylate 659 μg/mL, o-anisic acid 12.5 mM in Reagent A
[10] = plasma with non-interfering co-administered drugs, o-anisic acid 12.5 mM in Reagent A
[11] = salicylate 659 μg/mL + NI drugs in plasma, no releasing agent in Reagent A

SMILES | C A 340 nm (background absorbance) [1] | D ΔA = agent - control ΔA 340 nm [1] | I (H-G) Buff Rate Span [2] | J (H-F) Buff-NHP Rate Diff. [2] | G Buff with 0 μg/mL MPA Rate [2] | H Buff with 10 μg/mL MPA Rate [2] | E NHP with 0 μg/mL MPA Rate [2] | F NHP with 10 μg/mL MPA Rate [2] | further results
O=S(=O)(O)c1cccc2cccc(Nc3ccccc3)c12 [ANS, 8-anilino-1-naphthalene sulfonic acid, reference compound] | 0.779 | 0.322 | 120.2 mA/min | 2.0 mA/min | 156.0 mA/min | 276.2 mA/min | 158.2 mA/min | 274.2 mA/min | discoloration of Reagent A when exposed to light [3]: visibly discolored when exposed to light
COc1c(C)c2c(c(O)c1C/C=C(\C)CCC(=O)OCCN1CCOCC1)C(=O)OC2 [MPA-M, morpholinoethyl (E)-6-(1,3-dihydro-4-hydroxy-6-methoxy-7-methyl-3-oxo-5-isobenzofuranyl)-4-methyl-4-hexenoate] |  |  |  |  |  |  |  |  | hydrolysis in vivo to MPA [4]: rapidly hydrolyzed in vivo to MPA
COc1cccc(C(=O)O)c1 [m-AA] | 0.494 | 0.008 | 90.3 mA/min | −0.6 mA/min | 189.4 mA/min | 279.7 mA/min | 188.1 mA/min | 280.3 mA/min | 
COc1ccccc1C(=O)O [o-AA, o-methoxybenzoic acid] | 0.490 | 0.004 | 109.3 mA/min | 0.6 mA/min | 168.2 mA/min | 277.5 mA/min | 169.5 mA/min | 276.9 mA/min | quantitation of a 10 μg/mL MPA spike in normal human plasma pool (NHP) [5]: 10.2 µg/mL; quantitation of a 10 μg/mL MPA spike in PBS ([5]; protein-free PBS): 10.4 µg/mL; effect of o-anisic acid in the antibody reagent on salicylate interference ([6]; o-anisic acid 12.5 mM in Reagent A): eliminated this potential problem; Rate, MPA + MeOH, 0 μg/mL MPA [6, 8]: 161; Rate, MPA + MeOH, 0.5 μg/mL MPA [6, 8]: 171; Rate, MPA + MeOH, 2.5 μg/mL MPA [6, 8]: 210; Rate, MPA + MeOH, 5 μg/mL MPA [6, 8]: 234; Rate, MPA + MeOH, 15 μg/mL MPA [6, 8]: 264; Rate, MPA + NI + Salicylate, 0 μg/mL MPA [6, 9]: 161; Rate, MPA + NI + Salicylate, 0.5 μg/mL MPA [6, 9]: 171; Rate, MPA + NI + Salicylate, 2.5 μg/mL MPA [6, 9]: 211; Rate, MPA + NI + Salicylate, 5 μg/mL MPA [6, 9]: 234; Rate, MPA + NI + Salicylate, 15 μg/mL MPA [6, 9]: 263; Rate, MPA + NI, 0 μg/mL MPA [6, 10]: 161; Rate, MPA + NI, 0.5 μg/mL MPA [6, 10]: 173; Rate, MPA + NI, 2.5 μg/mL MPA [6, 10]: 211; Rate, MPA + NI, 5 μg/mL MPA [6, 10]: 234; Rate, MPA + NI, 15 μg/mL MPA [6, 10]: 263
COc1ccc(C(=O)O)cc1 [p-AA] | 0.494 | 0.008 | 96.0 mA/min | −2.1 mA/min | 182.3 mA/min | 278.3 mA/min | 182.7 mA/min | 280.4 mA/min | 
O=C(O)c1ccccc1O [salicylic acid, 2-hydroxybenzoic acid, reference compound] |  |  |  |  |  |  |  |  | absorbance above the control background at 340 nm ([1]; 25 mM in Reagent A): 0.311 absorbance units; effect of salicylate on rates of MPA in normal human plasma ([6]; absence of releasing agents): increased rates of MPA in normal human plasma; Rate, MPA + NI + Salicylate, 0.5 μg/mL MPA, Antibody Reagent Only [6, 11]: 157; Rate, MPA + NI + Salicylate, 2.5 μg/mL MPA, Antibody Reagent Only [6, 11]: 190; Rate, MPA + NI + Salicylate, 5 μg/mL MPA, Antibody Reagent Only [6, 11]: 210; Rate, MPA + NI + Salicylate, 15 μg/mL MPA, Antibody Reagent Only [6, 11]: 250; decrease in the total dose-response curve in an MPA enzyme immunoassay [7]: 25-50%
